Measured values as given in PMC11065314, “Identification of compounds that cause axonal dieback without cytotoxicity in dorsal root ganglia explants and intervertebral disc cells with potential to treat pain via denervation” (PLOS ONE, 2024).
“And” between values parts separate entries of the source, which are not always exact repeats. Equal values may be shown once. Where a name gives a salt, the structure may show the parent alone.

Tests used:
[1] = Quantification of viable NP cells (LIVE/DEAD staining); assay type: cell-based, human; conditions: both sexes, human, human nucleus pulposus (NP) cells; 10 to 500 nM, day 3 post-treat; read-out: Percentage of viable cells
Procedure: (§1) Nucleus pulposus (NP) cells are native matrix-producing cells at the core of intervertebral discs. To repurpose axonal dieback compounds to denervate aberrant nerve fibers in discs related to chronic LBP, the cytocompatibility of these compounds with NP cells must be evaluated. Human NP cells (Sciencell, 4800) from donor 1 (Lot #5954) and donor 2 (Lot# 21579) were cultured according to previously established protocol in our lab adapted from manufacturer’s instructions. Briefly, passage three cells from both donors were expanded in Poly-L-lysine (PLL) (Sciencell, 413) coated T75 flasks. Cells were then lifted and reseeded at 5,000 cells/cm^2 onto two PLL-coated 48-well plates (Greiner Bio-One, 677180) and allowed to attach overnight before treating with Pyr or Vcr. One plate was used for LIVE/DEAD staining and the other plate was used for AlamarBlue assay as described below. Complete NP cell media (Sciencell, 4801) containing basal media supplemented with 1% penicillin-streptomycin, 1% growth supplement and 2% FBS were used for maintaining cells in culture. To mimic the hypoxic disc environment, NP cells were cultured in a hypoxia chamber (Stem Cell Technologies, 27310) with 5% CO2, 3.5% O2, 91.5% N2 (Airgas) during the entire culture and treatment incubation period.
(§2) Pyr stock solution was diluted in complete NP media to achieve final concentrations of 500 μM, 1 mM and 2 mM Pyr. 16.9 μg/mL and 169 μg/mL Vcr stock solutions were prepared in 1X PBS then diluted in complete NP media to achieve final concentrations of 10, 25, 50, 100 nM and 200, 500 nM, respectively. Cells were incubated with 250 μL of final treatment solutions in duplicate wells per donor for three days. Cells in negative control group were incubated with 250 μL of complete NP media with 0.55% v/v 1X PBS as solvent control. On day 3 post-treatment, brightfield images at 4X magnification were taken using a BioTek Cytation1 Plate Imager (Agilent) to verify cell proliferation and observe cell morphology. Three experimental replicates were performed for each cell donor.
(§3) On day 3 of incubation with drug, media treatment solutions were removed from each well and cells were carefully rinsed with 200 μL of sterile 1X PBS to remove excess media. NP cells were stained with 150 μL of 2 μM Calcein AM and 6 μM EtHD-1 solution from LIVE/DEAD Viability/Cytotoxicity Kit (Thermo Fisher Scientific, L3224) for 30 minutes at room temperature protected from light. After staining, cells were gently rinsed with 200 μL sterile 1X PBS to remove excess staining solution. Excitation and emission wavelengths for live cell fluorescence is 495 and 515 nm and dead cell fluorescence is 495 and 635 nm. Using a BioTek Cytation1 Plate Imager (Agilent), GFP filter cube (Agilent, 1225101, ex: 451.5–486.5 nm, em: 505.5–544.5 nm) and RFP filter cubes (Agilent, 1225103, ex: 511-551nm, em: 573–613 nm), fluorescent images at 4X magnification of four regions per well were taken. Gen5 v3.11 software (Agilent) was used to count green (live) and orange (dead) cells in fluorescent images. Dead NP cell staining was verified and evident by positive EtHD-1 orange staining in kill control wells where cells were treated with 70% EtOH for 10 minutes (S4 Fig). Percentage of live cells were calculated by calculating the percentage of live cells over total cell counts as shown in Eq 3.
(§4) Cellviability(%)=Livecellcounts/Livecellcounts+Deadcellcounts×100% (3)

Human NP cells = experiment: as above; assay type: cell-based
Procedure: as §1, §2, §3, §4

[2] = systemic administration; cited from earlier work

## CC[C@]1(O)C[C@H]2CN(CCc3c([nH]c4ccccc34)[C@@](C(=O)OC)(c3cc4c(cc3OC)N(C=O)[C@H]3[C@@](O)(C(=O)OC)[C@H](OC(C)=O)[C@]5(CC)C=CCN6CC[C@]43[C@@H]65)C2)C1 [Vcr, vincristine sulfate]
[1]
  viability at 3 days: > 81%
Human NP cells; 10 nM, donor 1, day 3, single wells (Exp, Rep)
  Percent live (%): 90.3134% and 98.5594% and 99.6198% and 83.3102% and 99.7603% and 99.2074%
Human NP cells; 25 nM, donor 1, day 3, single wells (Exp, Rep)
  Percent live (%): 89.2996% and 89.1566% and 99.4877% and 99.866% and 98.4016% and 98.5294%
Human NP cells; 25 nM, donor 2, day 3, single wells (Exp, Rep)
  Percent live (%): 97.6127% and 96.3918% and 89.1374% and 87.5648% and 97.9899% and 92.8571%
Human NP cells; 50 nM, donor 1, day 3, single wells (Exp, Rep)
  Percent live (%): 99.536% and 94.3223% and 95.1923% and 99.2108% and 99.6933% and 99.3363%
Human NP cells; 50 nM, donor 2, day 3, single wells (Exp, Rep)
  Percent live (%): 98.5163% and 97.4555% and 94.0054% and 88.1057% and 96.8127% and 94.0758%
Human NP cells; 100 nM, donor 1, day 3, single wells (Exp, Rep)
  Percent live (%): 98.9571% and 99.7976% and 95.6589% and 96.3247% and 98.866% and 99.2797%
Human NP cells; 100 nM, donor 2, day 3, single wells (Exp, Rep)
  Percent live (%): 99.5495% and 99.5885% and 95.3125% and 93.5614% and 98.018% and 96.1078%
Human NP cells; 200 nM, donor 1, day 3, single wells (Exp, Rep)
  Percent live (%): 96.7883% and 99.5461% and 93.2203% and 99.7674% and 98.7402% and 97.893%
Human NP cells; 200 nM, donor 2, day 3, single wells (Exp, Rep)
  Percent live (%): 98.9101% and 97.7221% and 91.7808% and 91.6988% and 97.8182% and 96.8701%
Human NP cells; 500 nM, donor 1, day 3, single wells (Exp, Rep)
  Percent live (%): 99.2% and 97.9245% and 96.5986% and 97.28% and 92.5651% and 91.0506%
[2]
  Chemotherapy patients developing peripheral neuropathy: 96%
